{"source": "patent US20040087572A1", "about": "“Method for inhibiting cataracts” (priority 2003, published 2004)", "key": {"[1]": {"tested_on": "chloride channels in the lens", "details": "organ culture, clinically relevant concentrations; cited from earlier work"}, "[2]": {"tested_on": "postmenopausal women (cataracts)", "experiment": "Phase 3 placebo-controlled clinical trial: cataract treatment-emergent signs and symptoms (TESS) events", "format": "in vivo, human", "method": "A phase 3, multicenter, double-blind, placebo-controlled, randomized clinical trial was conducted. The trial included 7705 women (mean age 67 years old), who were an average of 19 years postmenopausal. These patients were randomly assigned to the following treatment protocol: raloxifene hydrochloride at 60 mg per day via oral administration, raloxifene at 120 mg per day, or placebo. The study was conducted for a period of 48 months. As a portion of the patient's overall evaluation, various clinical tests and parameters were measured at periodic intervals.\nThe following tables provide summaries of select cataract treatment-emergent signs and symptoms (“TESS”) events for various patient populations at the thirty-six and the forty-eight month mark of the clinical trial."}, "endometrium / uterus": {"tested_on": "endometrium / uterus", "details": "clinical studies in women; cited from earlier work"}, "[3]": {"details": "All Randomized Patients, 36-Month Data, Rlx60 (60 mg per day oral), N = 2557"}, "[4]": {"details": "All Randomized Patients, 36-Month Data, Rlx120 (120 mg per day), N = 2572"}, "[5]": {"details": "All Randomized Patients, 48-Month Data, Rlx60 (60 mg per day oral), N = 2557"}, "[6]": {"details": "All Randomized Patients, 48-Month Data, Rlx120 (120 mg per day), N = 2572"}, "[7]": {"details": "Patients Not Reporting a Cataract-Related Current Condition at Baseline, 36-Month Data, Rlx60 (60 mg per day oral), N = 2394"}, "[8]": {"details": "Patients Not Reporting a Cataract-Related Current Condition at Baseline, 36-Month Data, Rlx120 (120 mg per day), N = 2418"}, "[9]": {"details": "Patients Not Reporting a Cataract-Related Current Condition at Baseline, 48-Month Data, Rlx60 (60 mg per day oral), N = 2385"}, "[10]": {"details": "Patients Not Reporting a Cataract-Related Current Condition at Baseline, 48-Month Data, Rlx120 (120 mg per day), N = 2408"}, "[11]": {"details": "Patients Reporting a Cataract-Related Current Condition at Baseline, 36-Month Data, Rlx60 (60 mg per day oral), N = 163"}, "[12]": {"details": "Patients Reporting a Cataract-Related Current Condition at Baseline, 36-Month Data, Rlx120 (120 mg per day), N = 154"}, "[13]": {"details": "Patients Reporting a Cataract-Related Current Condition at Baseline, 48-Month Data, Rlx60 (60 mg per day oral), N = 172"}, "[14]": {"details": "Patients Reporting a Cataract-Related Current Condition at Baseline, 48-Month Data, Rlx120 (120 mg per day), N = 164"}}, "data": [{"smiles": "CC/C(=C(\\c1ccccc1)c1ccc(OCCN(C)C)cc1)c1ccccc1", "note": "[tamoxifen]", "values": [{"measurement": "Effect on chloride channels", "setting": "[1]", "result": "blocked chloride channels"}]}, {"smiles": "Cl.O=C(c1ccc(OCCN2CCCCC2)cc1)c1c(-c2ccc(O)cc2)sc2cc(O)ccc12", "note": "[Rlx, [2-(4-hydroxyphenyl)-6-hydroxybenzo[b]thie-3-yl][4-[2-(1-piperidenyl)ethoxy]phenyl]methanone hydrochloride]", "values": [{"measurement": "Dose dependence of the trend in cataract events", "setting": "[2]; 120 mg per day vs 60 mg per day vs placebo", "result": "dose dependent"}, {"measurement": "Risk of cataracts (adverse events relating to cataracts) as compared to placebo", "setting": "[2]; 7705 postmenopausal women, 60 or 120 mg per day, 48 months", "result": "trend toward decreasing risk of cataracts"}, {"measurement": "\"Cataract Specified\" event, number of patients", "setting": "[2]; [3]", "result": 92}, {"measurement": "\"Cataract Specified\" event, percent of patients", "setting": "[2]; [3]", "result": 3.6, "unit": "%"}, {"measurement": "Any Cataract-related event, number of patients", "setting": "[2]; [3]", "result": 105}, {"measurement": "Any Cataract-related event, percent of patients", "setting": "[2]; [3]", "result": 4.1, "unit": "%"}, {"measurement": "Surgery for cataract, number of patients", "setting": "[2]; [3]", "result": 60}, {"measurement": "Surgery for cataract, percent of patients", "setting": "[2]; [3]", "result": 2.3, "unit": "%"}, {"measurement": "\"Cataract Specified\" event, number of patients", "setting": "[2]; [4]", "result": 82}, {"measurement": "\"Cataract Specified\" event, percent of patients", "setting": "[2]; [4]", "result": 3.2, "unit": "%"}, {"measurement": "Any Cataract-related event, number of patients", "setting": "[2]; [4]", "result": 101}, {"measurement": "Any Cataract-related event, percent of patients", "setting": "[2]; [4]", "result": 3.9, "unit": "%"}, {"measurement": "Surgery for cataract, number of patients", "setting": "[2]; [4]", "result": 60}, {"measurement": "Surgery for cataract, percent of patients", "setting": "[2]; [4]", "result": 2.3, "unit": "%"}, {"measurement": "\"Cataract Specified\" event, number of patients", "setting": "[2]; [5]", "result": 135}, {"measurement": "\"Cataract Specified\" event, percent of patients", "setting": "[2]; [5]", "result": 5.3, "unit": "%"}, {"measurement": "Any Cataract-related event, number of patients", "setting": "[2]; [5]", "result": 151}, {"measurement": "Any Cataract-related event, percent of patients", "setting": "[2]; [5]", "result": 5.9, "unit": "%"}, {"measurement": "Surgery for cataract, number of patients", "setting": "[2]; [5]", "result": 85}, {"measurement": "Surgery for cataract, percent of patients", "setting": "[2]; [5]", "result": 3.3, "unit": "%"}, {"measurement": "\"Cataract Specified\" event, number of patients", "setting": "[2]; [6]", "result": 122}, {"measurement": "\"Cataract Specified\" event, percent of patients", "setting": "[2]; [6]", "result": 4.7, "unit": "%"}, {"measurement": "Any Cataract-related event, number of patients", "setting": "[2]; [6]", "result": 140}, {"measurement": "Any Cataract-related event, percent of patients", "setting": "[2]; [6]", "result": 5.4, "unit": "%"}, {"measurement": "Surgery for cataract, number of patients", "setting": "[2]; [6]", "result": 78}, {"measurement": "Surgery for cataract, percent of patients", "setting": "[2]; [6]", "result": 3.0, "unit": "%"}, {"measurement": "Any Cataract-related event, number of patients", "setting": "[2]; [7]", "result": 80}, {"measurement": "Any Cataract-related event, percent of patients", "setting": "[2]; [7]", "result": 3.3, "unit": "%"}, {"measurement": "Any Cataract-related event, number of patients", "setting": "[2]; [8]", "result": 83}, {"measurement": "Any Cataract-related event, percent of patients", "setting": "[2]; [8]", "result": 3.4, "unit": "%"}, {"measurement": "Any Cataract-related event, number of patients", "setting": "[2]; [9]", "result": 120}, {"measurement": "Any Cataract-related event, percent of patients", "setting": "[2]; [9]", "result": 5.0, "unit": "%"}, {"measurement": "Any Cataract-related event, number of patients", "setting": "[2]; [10]", "result": 115}, {"measurement": "Any Cataract-related event, percent of patients", "setting": "[2]; [10]", "result": 4.8, "unit": "%"}, {"measurement": "Any Cataract-related event, number of patients", "setting": "[2]; [11]", "result": 25}, {"measurement": "Any Cataract-related event, percent of patients", "setting": "[2]; [11]", "result": 15.3, "unit": "%"}, {"measurement": "Any Cataract-related event, number of patients", "setting": "[2]; [12]", "result": 18}, {"measurement": "Any Cataract-related event, percent of patients", "setting": "[2]; [12]", "result": 11.7, "unit": "%"}, {"measurement": "Any Cataract-related event, number of patients", "setting": "[2]; [13]", "result": 31}, {"measurement": "Any Cataract-related event, percent of patients", "setting": "[2]; [13]", "result": 18.0, "unit": "%"}, {"measurement": "Any Cataract-related event, number of patients", "setting": "[2]; [14]", "result": 25}, {"measurement": "Any Cataract-related event, percent of patients", "setting": "[2]; [14]", "result": 15.2, "unit": "%"}, {"measurement": "Endometrial cancer", "setting": "endometrium / uterus", "result": "has not been associated with endometrial cancer"}, {"measurement": "Endometrial stimulation", "setting": "endometrium / uterus", "result": "not associated with endometrial stimulation"}]}]}
